Source: PMC6321222, “An Application of Fit Quality to Screen MDM2/p53 Protein-Protein Interaction Inhibitors” (Molecules, 2018)
Where two headings read alike, the source gives them in different places.

Legend:
MDM2/p53 PPI = settings: Figure 9, representative of each group; collected from the literature; cited from earlier work
HepG2 (wt-p53) = test: cells; type: cell-based, human; settings: for IC50: Homo sapiens, HepG2, means of three experiments, 72 h, read-out: MTT IC50 HepG2 (wt-p53)
Description: (§1) In order to further confirm whether they inhibit MDM2 and release p53, a cellular test using HepG2 cell line (wild-type p53; wt-p53) vs. Hep3B cell line (p53 null) was carried out. The selectivity was calculated by IC50 against Hep3B divided by HepG2 (Table 1). The larger the selectivity value was, the stronger the interaction force between the ligands and MDM2.
(§2) The cellular growth inhibitory activity was determined using two human hepatoma cell lines, HepG2 (with wild-type p53) and Hep3B (with wt-p53 null). The IC50 was then analyzed using the GraphPad Prism 5 software (see Supplemental Materials).
(§3) In vitro antitumor activity.
(§4) Liver hepatocellular carcinoma HepG2 (with wild-type p53) and Hep3B (with p53 null) cell lines […]
(§5) 37°C in a humidified 5% carbon dioxide humidified incubator.
(§6) 5-6×10^4 cells per well were plated in 96-well plates (Costar) for 24 h, and the test compounds (prepared in 100% DMSO as a stock solution) were added in triplicate (100µL per well). 8 different concentrations (from 0.05 to 100µM) were tested for each compound. For each assay, the controls included only the medium (blank) and only the cells (positive). After 72 h of incubation, 20 µL of MTT (3-[4,5-dimethylthiazol-2-yl]-2,5-diphenyltetrazoliumbromide) solution (5 mg/mL) was added to each well, and after the samples were shaken for 1 min the plate was incubated further for 4 h at 37°C. […] were dissolved with 150 µL of DMSO and the plates were read using Eon (BioTek) at 570 nm. The IC50 was then analyzed using GraphPad Prism software. […]

Hep3B (p53 null) = test: cells; type: cell-based; settings: Homo sapiens, means of three experiments, 72 h, read-out: MTT IC50 Hep3B (p53 null)
Description: as §1, §2, §3, §4, §5, §6

[1] = molecular target: T1, human recombinant His-fused soluble protein MDM2 (residues 1–118) (Homo sapiens, UniProt Q00987); test: biochemical; type: binding; settings: for FQ-Test: fit quality calculated using pKi tested by FP; for Ki: fluorescence polarization assay
T1 construct: His-fused soluble protein MDM2 (residues 1–118); His
T1 sequence (Q00987 1-118): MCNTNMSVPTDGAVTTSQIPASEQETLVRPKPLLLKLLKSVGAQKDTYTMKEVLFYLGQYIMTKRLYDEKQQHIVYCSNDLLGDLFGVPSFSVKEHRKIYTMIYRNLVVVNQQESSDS

[2] = IC50 of Hep3B (p53 null) divided by HepG2 (wt-p53)

SMILES	IC50 (MDM2/p53 PPI) [µM]	Selectivity (HepG2 (wt-p53))	IC50 (HepG2 (wt-p53)) [µM]	IC50 (Hep3B (p53 null)) [µM]	FQ-Test [1]	Ki [1] [µM]	Selectivity (HepG2 (wt-p53); [2])
CC(C)(C)CC1NC(C(=O)NC2CCC(O)CC2)C(c2cccc(Cl)c2F)C12C(=O)Nc1cc(Cl)ccc12 (stereo not shown) [H]	0.214	–	–	–	–	–	–
CCOc1ccccc1Oc1cnc(N)nc1-c1ccc(OCc2ccc(C)cc2)cc1O [compound 6]	–	3.71	5.54	20.5	0.83	0.59	–
COc1cc(C(=O)O)ccc1NC(=O)[C@@H]1N[C@@H](CC(C)(C)C)[C@](C#N)(c2ccc(Cl)cc2F)[C@H]1c1cccc(Cl)c1F [G]	0.006	–	–	–	–	–	–
CC(C)C(CS(=O)(=O)C(C)C)N1C(=O)C(C)(CC(=O)O)CC(c2cccc(Cl)c2)C1c1ccc(Cl)cc1 (stereo not shown) [B]	0.0001	–	–	–	–	–	–
COC(=O)c1cc(Oc2ccc(C(F)(F)F)cc2NS(=O)(=O)c2cccc(Cl)c2C)cs1 [compound 5]	–	–	4.77	23.2	0.80	0.94	4.87
O=C(Nc1nc2ccccc2s1)c1ccccc1C(=O)c1ccc(Cl)cc1 [compound 3]	–	10.75	4.4	47.3	0.86	0.62	–
Nc1c(Cl)cc([C@@H](O)CN[C@H]2c3ccccc3CSc3ccccc32)cc1Cl [compound 4]	–	6.51	5.35	34.8	0.83	0.82	–
COc1ccc(OC)c(S(=O)(=O)N(C)CC(=O)Nc2ccccc2OC)c1 [compound 2]	–	–	5.38	33.5	0.78	2.21	6.23
CCCCN1C(=O)[C@](O)(CC(=O)c2ccccc2OC)c2cc(Br)ccc21 [compound 1]	–	8.98	8.63	77.5	0.75	3.9	–
CCOc1cc(C(C)(C)C)ccc1C1=N[C@@](C)(c2ccc(Cl)cc2)[C@@](C)(c2ccc(Cl)cc2)N1C(=O)N1CCN(CCCS(C)(=O)=O)CC1 [A]	0.09	–	–	–	–	–	–
